The target of the experiment is T1, PAF specific receptor binding site, human platelet membranes (Homo sapiens, UniProt P25105).
T1 construct: from tissue; host or cells: human platelets (plasma membrane suspension)
Description: Inhibition of [3H] N-methylcarbamoyl-PAF binding to human platelet membranes. The following applies: trans configuration; for inhibition at 0.003 µM: 3 nM; for inhibition at 0.03 µM: 30 nM. The method, then: The compounds of formula (I) inhibit PAF-induced functions in both the cellular and tissue levels by changing the PAF binding to its specific receptor site. The ability of a compound of formula (I) to inhibit the PAF binding to its specific receptor binding site on rabbit or human platelet or PMN plasma membranes was measured by a recently developed assay.
The inhibition of ^3 [H]-PAF or ^3 [H]-N-methylcarbamoyl-PAF binding to the human or rabbit platelet or PMN plasma membrane by a PAF antagonist of formula (I) was determined by a method employing isotopic labeling and filtration techniques. Generally, a series of Tris-buffered solutions of the selected antagonist at predetermined concentrations were prepared. Each of these solutions contains 1 pmole of ^3 H-PAF, a known amount of the test antagonist, and a sufficient amount of the pH 7.5 Tris-buffer solution (10 mM Tris, 0.25% bovine serum albumin, and 150 mM NaCl per ml water) to make the final volume of 1 ml. After adding into a set of test tubes each with 100 μg of the platelet plasma membrane suspension (S. B. Hwang, et al., Biochemistry. Vol. 22, pp. 4756-4763, 1983) and one of the Tris-buffer solutions described above, the resulting mixture in each test tube was incubated at 0° C. for about one hour or until the reaction was complete. Two control samples, one of which (C1) contains all the ingredients described above except the antagonist and the other (C2) contains C 1 plus a 1000-fold excess of unlabeled PAF, were also prepared and incubated simultaneously with the test samples. After the incubation was completed, the contents of each test tube were filtered under vacuo through a Whatman GF/C fiberglass filter and the residue washed rapidly several times with a total of 20 ml cold (0°-5° C.) Tris buffer solution. Each washed residue was then suspended in 10 ml scintillation solution (Aquasol 2, New England Nuclear, Conn.) and the radioactivity was counted in a Packard Tri-Carb 460CD Liquid Scintillation System. Defining the counts from a test sample as "Total binding with antagonist"; the counts from the control sample C1, as "Total binding C1 "; and the counts from the control sample C2 as "non-specific binding C2 ", the percent inhibition of each test antagonist can be determined by the following equations: [formula]
Specific binding=(Total binding C1)-(non-specific binding C2)
*Inibition of the binding of [^3 H] Nmethylcarbamoyl-PAF to human

By inhibition is commonly meant the change of the read-out against control, counted positive when it falls. A lower inhibition goes with a response near the control.

T1 sequence (P25105 whole entry): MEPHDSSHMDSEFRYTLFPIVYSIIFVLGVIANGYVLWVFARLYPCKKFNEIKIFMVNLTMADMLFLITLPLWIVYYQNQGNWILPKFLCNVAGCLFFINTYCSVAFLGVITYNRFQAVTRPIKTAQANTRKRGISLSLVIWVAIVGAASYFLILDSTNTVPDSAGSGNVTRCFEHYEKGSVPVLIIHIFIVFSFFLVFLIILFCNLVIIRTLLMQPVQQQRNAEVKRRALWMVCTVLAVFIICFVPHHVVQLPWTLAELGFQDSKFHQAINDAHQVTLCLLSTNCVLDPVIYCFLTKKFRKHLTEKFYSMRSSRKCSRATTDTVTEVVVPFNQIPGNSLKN

Consider `CCCOc1c(OCC(C)=O)cc([C@@H]2CC[C@@H](c3cnc(OC)c(OC)c3)O2)cc1S(=O)(=O)CCCO` (relative stereo), for which testing at 0.003 µM gave an inhibition of 30% and the inhibition at 0.03 µM stood at 66%.

`CCCOc1c(OCCCO)cc([C@@H]2CC[C@@H](c3cnc(OC)c(OC)c3)O2)cc1S(=O)(=O)CC(C)=O` (relative stereo) [trans-2-[3-(2-oxopropyl)sulfonyl-4-n-propoxy-5-(3-hydroxypropoxy)phenyl]-5[5-(2,3-dimethoxy)pyridyl]tetrahydrofuran] came in with an inhibition at 0.003 µM of 43% and an inhibition at 0.03 µM of 87%.

Compound `CCCOc1c(OCC(C)=O)cc([C@H]2CC[C@H](c3cccnc3)O2)cc1S(=O)(=O)CCC` (relative stereo) [trans-2-[3-n-propylsulfonyl-4-n-propoxy-5-(2-oxopropoxy)phenyl]-5-(3-pyridyl) tetrahydrofuran] returned an inhibition at 0.003 µM of 12% and an inhibition at 0.03 µM of 66%.

The compound `CCCOc1c(OCC(C)=O)cc([C@@H]2CC[C@@H](c3cnc(OC)c(OC)c3)O2)cc1S(=O)(=O)CCC` (relative stereo) [trans-2-[3-n-propylsulfonyl-4-n-propoxy-5-(2-oxopropoxy)phenyl]-5-[5-(2,3-dimethoxy)pyridyl]tetrahydrofuran] came in with an inhibition at 0.003 µM of 63% and an inhibition at 0.03 µM of 93%.

`CCCOc1c(OCC(C)=O)cc([C@@H]2CC[C@@H](c3cnc(OC)c(OC)n3)O2)cc1S(=O)(=O)CCC` (relative stereo) [trans-2-[3-n-propylsulfonyl-4-n-propoxy-5-(2-oxopropoxy)phenyl]-5-[6-(2,3-dimethoxy)pyrazyl]tetrahydrofuran] gave an inhibition at 0.003 µM of 58% and an inhibition at 0.03 µM of 100%.

`CCCOc1c(OCCO)cc([C@@H]2CC[C@@H](c3cnc(OC)c(OC)c3)O2)cc1S(=O)(=O)CC(C)O` (stereo partly drawn) [trans-2-[3-(2-Hydroxypropyl)sulfonyl-4-n-propoxy 5-(2-hydroxyethoxy)phenyl]-5-[5-(2,3-dimethoxy)pyridyl]tetrahydrofuran] registered an inhibition at 0.003 µM of 13% and an inhibition at 0.03 µM of 58%.

Regarding `CCCOc1c(OCC(C)=O)cc([C@@H]2CC[C@@H](c3cnc(OC)c(OC)c3)O2)cc1S(=O)(=O)CC(C)O` (stereo partly drawn) [trans-2-[3-(2-Hydroxypropyl)sulfonyl-4-n-propoxy-5-(2-oxopropoxy)phenyl]-5-[5-(2,3-dimethoxy)pyridyl]tetrahydrofuran], the inhibition at 0.003 µM worked out at 31% and at 0.03 µM the inhibition was 81%.

As for `CCCOc1c(OCC(C)=O)cc([C@@H]2CC[C@@H](c3cnc(OC)c(OC)n3)O2)cc1S(=O)(=O)CC(C)O` (stereo partly drawn) [trans-2-[3-(2-Hydroxypropyl)sulfonyl-4-n-propoxy-5-(2-oxopropoxy)phenyl]-5-[6-(2.3 dimethoxy)pyrazyl]tetrahydrofuran], the inhibition at 0.003 µM came out at 42% and the inhibition at 0.03 µM stood at 81%.

In turn, `CCCOc1c(OCCCO)cc([C@@H]2CC[C@@H](c3cnc(OC)c(OC)c3)O2)cc1S(=O)(=O)CC(C)O` (stereo partly drawn) [trans-2-[3-(2-Hydroxypropyl)sulfonyl-4-n-propoxy-5-(3-hydroxypropoxy)phenyl]-5[5-(2,3-dimethoxy)pyridyl]tetrahydrofuran] registered an inhibition at 0.003 µM of 16% and an inhibition at 0.03 µM of 75%.

Compound `CCCOc1c(OCC(C)O)cc([C@@H]2CC[C@@H](c3cnc(OC)c(OC)c3)O2)cc1S(=O)(=O)CCC` (stereo partly drawn) [trans-2-[3-n-propylsulfonyl-4-n-propoxy-5-(2-hydroxypropoxy)phenyl]-5-[5-(2,3-dimethoxy)pyridyl]tetrahydrofuran] showed an inhibition at 0.003 µM of 54% and an inhibition at 0.03 µM of 100%.

For `CCCOc1c(OCC(C)O)cc([C@@H]2CC[C@@H](c3cnc(OC)c(OC)n3)O2)cc1S(=O)(=O)CCC` (stereo partly drawn) [trans-2-[3-n-propylsulfonyl-4-n-propoxy-5-(2-hydroxypropoxy)phenyl]-5-[6-(2,3-dimethoxy)pyrazyl]tetrahydrofuran], testing at 0.003 µM gave an inhibition of 60% and at 0.03 µM the inhibition was 100%.

Source of the values: patent US5011847A, “2,5-diaryl tetrahydrofurans and analogs thereof as PAF antagonists” (Merck & Co., Inc., priority 1989, dated 1991).
